The record followed here is patent US20260184715A1, “NOVEL PYRROLO[1,2-d][1,2,4] TRIAZINONE DERIVATIVES AS NEGATIVE ALLOSTERIC MODULATORS OF MGLU7 RECEPTORS” (Neurosterix Pharma Sarl., priority 2022, published 2026).

SMILES strings stand for the structures.

T1 sequence (Q14831 35-922 isoform Q14831-2 limits assumed): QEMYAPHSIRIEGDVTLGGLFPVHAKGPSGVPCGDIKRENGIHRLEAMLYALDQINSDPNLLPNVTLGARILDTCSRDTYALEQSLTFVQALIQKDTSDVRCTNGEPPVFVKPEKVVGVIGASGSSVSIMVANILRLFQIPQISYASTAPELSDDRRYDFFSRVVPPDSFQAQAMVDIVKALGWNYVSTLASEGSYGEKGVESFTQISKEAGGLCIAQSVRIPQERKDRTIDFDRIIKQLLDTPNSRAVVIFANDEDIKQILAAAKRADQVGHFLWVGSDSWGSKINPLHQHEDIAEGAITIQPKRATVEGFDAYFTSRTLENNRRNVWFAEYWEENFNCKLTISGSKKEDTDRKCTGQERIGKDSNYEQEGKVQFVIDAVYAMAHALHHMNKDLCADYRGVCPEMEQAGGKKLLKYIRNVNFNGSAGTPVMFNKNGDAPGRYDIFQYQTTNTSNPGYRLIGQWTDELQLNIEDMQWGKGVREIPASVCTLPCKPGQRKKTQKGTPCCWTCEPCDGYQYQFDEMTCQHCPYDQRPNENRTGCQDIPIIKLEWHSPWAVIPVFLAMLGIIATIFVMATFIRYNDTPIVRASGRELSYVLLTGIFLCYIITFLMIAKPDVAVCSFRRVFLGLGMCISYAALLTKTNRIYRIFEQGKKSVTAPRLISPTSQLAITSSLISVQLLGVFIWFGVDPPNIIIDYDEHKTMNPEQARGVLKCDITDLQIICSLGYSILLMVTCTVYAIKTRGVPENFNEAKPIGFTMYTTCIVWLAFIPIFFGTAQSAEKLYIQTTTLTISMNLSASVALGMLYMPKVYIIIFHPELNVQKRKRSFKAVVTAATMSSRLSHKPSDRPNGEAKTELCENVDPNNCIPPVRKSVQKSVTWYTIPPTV

This assay addresses T1, human metabotropic glutamate 7 receptor (hmGlu7) (Homo sapiens, UniProt Q14831).
T1 construct: expressed in transfected cells
In words: mGlu7 assay on HEK-expressing human mGlu7: fluorescent cell based-Ca2+ mobilization assay (FLIPR), inhibition of EC80 L-AP4 response. Conditions: HEK-293 cells expressing hmGlu7, EC80 L-AP4; mean of at least three independent experiments in duplicate; read-out: Ca^2+ Flux (mean IC50). From the text: mGlu7 Assay on HEK-Expressing Human mGLU7
The cDNA encoding the human metabotropic glutamate 7 receptor (hmGlu7), (accession number NM_181874.2, NCBI Nucleotide database browser), was subcloned into an expression vector containing also the hygromycin resistance gene. In parallel, the cDNA encoding a G protein allowing redirection of the activation signal to intracellular calcium flux was subcloned into a different expression vector containing also the Puromycin resistance gene. Transfection of both these vectors into HEK293 cells with PolyFect reagent (Qiagen) according to supplier's protocol, and hygromycin and puromycin treatment allowed selection of antibiotic resistant cells which had integrated stably one or more copies of the plasmids. Positive cellular clones expressing hmGlu7 were identified in a functional assay measuring changes in calcium fluxes in response to glutamate and L-AP4 or known mGlu7 orthosteric antagonists.
HEK-293 cells expressing hmGlu7 were maintained in media containing DMEM, Fetal Bovine Serum (10%), GlutaMAX™ (2 mM), penicillin (100 units/mL), streptomycin (100 μg/mL), geneticin (100 μg/mL) and hygromycin-B (40 μg/mL) and puromycin (1 μg/mL) at 37° C. with 5% CO2 in a humidified atmosphere.
Human mGlu7 HEK-293 cells were plated out 24 hours prior to a fluorescent cell-based calcium mobilization assay using FLIPR^384 assay (Molecular Device, Sunnyvale, CA, USA) in black-walled, clear-bottomed, poly-L-ornithine-coated 384-well plates at a density of 25,000 cells/well in a glutamine/glutamate free DMEM medium containing fetal bovine serum (10%), penicillin (100 units/mL), streptomycin (100 μg/mL) and doxycyline (1 μg/ml) at 37° C. with 5% CO2 in a humidified atmosphere.
On the day of the assay, the medium was aspirated and the cells were loaded with a 3 μM solution of Fluo4-AM (LuBioScience, Lucerne, Switzerland) in 0.03% pluronic acid. After 1 hour at 37° C./5% CO2, the non incorporated dye was removed by washing cell plate with the assay buffer. All assays were performed in a pH 7.4 buffered-Solution containing 20 mM HEPES, 143 mM NaCl, 6 mM KCl, 1 mM MgSO4, 1 mM CaCl2, 0.125 mM sulfinpyrazone and 0.1% glucose.
After 10 s of basal fluorescence recording, various concentrations of the compounds of the invention were added to the cells. Changes in fluorescence levels were first monitored for 180 s in order to detect any agonist activity of the compounds. Then the cells were stimulated by an EC80 L-AP4 concentration for an additional 110 s in order to measure inhibiting activities of the compounds of the invention. EC80 L-AP4 concentration is the concentration giving 80% of the maximal glutamate response.
The concentration-response curves of L-AP4 or representative compounds of the present invention were generated using the Prism GraphPad software (Graph Pad Inc, San Diego, USA). The curves were fitted to a four-parameter logistic equation:
(Y=Bottom+(Top−Bottom)/(1+10^((Log IC50−X)*Hill Slope)
allowing determination of IC50 values.
The Table 3 below represents the mean IC50 obtained from at least three independent experiments of selected molecules performed in duplicate.
Regarding `Cc1c(-c2cccc(N3C4CCC3CC4)c2)c(C)n2c(=O)n(-c3ncccn3)ncc12` [1-131], the half-inhibitory concentration (IC50) lay within 100 to 1000 nM. To `COc1ccc(-c2c(C)c3cnn(-c4ncccn4)c(=O)n3c2C)cn1` [1-132] belongs less than 100 nM. To `COc1cccc(-c2c(C)c3cnn(-c4ncccn4)c(=O)n3c2C)c1F` [1-133] belongs 100 to 1000 nM; to `COc1ccc(-c2c(C)c3cnn(-c4ncccn4)c(=O)n3c2C)c(C)c1` [1-134], less than 100 nM; to `COc1ccc(-c2c(C)c3cnn(-c4ncccn4)c(=O)n3c2C)c(F)c1` [1-135], less than 100 nM. For the compound `COc1ccc(-c2c(C)c3cnn(-c4ccccn4)c(=O)n3c2C)c(F)c1` [1-136], the IC50 is less than 100 nM. For `COc1ccc(-c2c(C)c3cnn(-c4ncccn4)c(=O)n3c2C)c(C)n1` [1-137], the IC50 lay within 100 to 1000 nM.

On to `COc1nccc(-c2c(C)c3cnn(-c4ncccn4)c(=O)n3c2C)c1F` [1-138], for which the IC50 lay within 100 to 1000 nM.

On to `COc1cc(-c2c(C)c3cnn(-c4ncccn4)c(=O)n3c2C)ccn1` [1-139], for which the IC50 lay within 100 to 1000 nM. To `Cc1c(-c2ccnc(OC(F)F)c2)c(C)n2c(=O)n(-c3ccccn3)ncc12` [1-140] belongs 100 to 1000 nM. Turning to `Cc1c(-c2ccnc(OC(F)F)c2)c(C)n2c(=O)n(-c3ncccn3)ncc12` [1-141], the IC50 fell in the range of 1000 to 10000 nM. For `COc1ccc(-c2cc3cnn(-c4ccccn4)c(=O)n3c2C)cn1` [1-142], the IC50 lay within 100 to 1000 nM. Regarding `Cc1c(-c2cc3cnn(-c4ccccn4)c(=O)n3c2C)ccnc1OC1CC1` [1-143], the IC50 is less than 100 nM.

Consider `COc1ccc(-c2cc3cnn(-c4ncccn4)c(=O)n3c2C)cn1` [1-144], for which the IC50 lay in the range of 100 to 1000 nM. To `Cc1c(-c2cc3cnn(-c4ncccn4)c(=O)n3c2C)ccnc1OC1CC1` [1-145] belongs less than 100 nM. As for `Cc1c(-c2ccnc(OC(F)F)c2)cc2cnn(-c3ccccn3)c(=O)n12` [1-146], the figure is 100 to 1000 nM; as for `Cc1c(-c2ccnc(OC(F)F)c2)cc2cnn(-c3ncccn3)c(=O)n12` [1-147], less than 100 nM.

By IC50 is commonly meant the concentration needed to halve the response being measured.
